This note sets out measurements from ChEMBL document CHEMBL1137953, “A novel approach to the synthesis of cytotoxic C2-C3 unsaturated pyrrolo[2,1-c]benzodiazepines (PBDs) with conjugated acrylyl C2-substituents” (2004).

The TGI is the concentration at which net growth stops. A lower TGI goes with more potent growth arrest. As a reminder, the GI50 is the concentration at which growth is held to half of that of the control. Low values mean greater sensitivity of the cells, high ones lower sensitivity of the cells.

What all share (format): functional
Assay [1] can be described thus: Compound was evaluated for total growth inhibition of 60 cell lines in NCI screen.
Assay [2] is described as follows: Compound was evaluated for growth inhibition of 60 cell lines in NCI screen.
A short description of assay [3]: Lethal concentration of compound was evaluated against 60 cell lines in NCI screen.
The subject of a further assay is CCRF-CEM. Nature of the assay: Compound was evaluated for growth inhibition of leukemia CCRF-CEM cell line in NCI 60-cell line screen. The following applies: Homo sapiens.
A further assay has as its system HCT-116. Nature of the assay: Compound was evaluated for growth inhibition of colon HCT116 cell line in NCI 60-cell line screen. The following applies: Homo sapiens.
The test system of the next assay is HOP-92. Nature of the assay: Compound was evaluated for growth inhibition of non-small cell lung HOP-92 cell line in NCI 60-cell line screen. The following applies: Homo sapiens.
In another assay the test system is MCF7. Nature of the assay: Compound was evaluated for growth inhibition of breast MCF-7 cell line in NCI 60-cell line screen. The following applies: Homo sapiens.
For a further assay, the system named is OVCAR-5. Nature of the assay: Compound was evaluated for growth inhibition of ovarian OVCAR-5 cell line in NCI 60-cell line screen. The following applies: Homo sapiens.
The subject of another assay is PC-3. Nature of the assay: Compound was evaluated for growth inhibition of prostate PC-3 cell line in NCI 60-cell line screen. The following applies: Homo sapiens.
The subject of the next assay is RXF 393. Nature of the assay: Compound was evaluated for growth inhibition of renal RXF-393 cell line in NCI 60-cell line screen. The following applies: Homo sapiens.
Another assay relates to U-251. Nature of the assay: Compound was evaluated for growth inhibition of central nervous system U251 cell line in NCI 60-cell line screen. The following applies: Homo sapiens.
A further assay concerns UACC-257. Nature of the assay: Compound was evaluated for growth inhibition of melanoma UACC-257 cell line in NCI 60-cell line screen. The following applies: Homo sapiens.

With `COc1cc2c(cc1OC)C(=O)N1C=C(/C=C/C(N)=O)C[C@H]1C=N2`, the TGI in assay [1] was found to be 3.72 µM. For the same compound, the concentration for 50% growth inhibition (GI50) in [2] was 0.053 µM. Moreover, the LC50 (50% lethal concentration) in assay [3] turned out to be 69.2 µM.

For `COC(=O)/C=C/C1=CN2C(=O)c3cc(OC)c(OC)cc3N=C[C@@H]2C1`, total growth inhibition in assay [1] (TGI) required 1.32 µM. Besides, in assay [2], the 50% growth inhibitory concentration (GI50) is 0.013 µM. The LC50 (50% lethal concentration) in assay [3] amounted to 55 µM.

With `COc1cc2c(cc1OC)C(=O)N1C=C(/C=C/C(=O)N(C)C)C[C@H]1C=N2`, the concentration for 50% growth inhibition (GI50) with CCRF-CEM stood at 0.0006 µM; in the assay with HCT-116, 0.0117 µM; in the assay on HOP-92, 0.00234 µM; with MCF7, 0.00715 µM; in the assay on OVCAR-5, 0.00321 µM; in the assay on PC-3, 0.0186 µM. The 50% growth inhibitory concentration (GI50) in the assay on RXF 393 worked out at 0.00165 µM; in the assay with U-251 it was 0.00333 µM; in [2], 0.012 µM; with UACC-257, 0.00025 µM. Further, total growth inhibition in assay [1] (TGI) required 0.096 µM. In [3], the LC50 (50% lethal concentration) amounted to 0.65 µM.

For `Cc1ccc2c(c1O)NC(O)C1CC(/C=C/C(N)=O)=CN1C2=O` (stereo not given) [ANTHRAMYCIN], the concentration for 50% growth inhibition (GI50) in the assay on CCRF-CEM is 0.02 µM; in the assay with HCT-116, 0.0398 µM; with HOP-92, 0.02 µM; in the assay with MCF7, 0.0398 µM; in the assay on OVCAR-5 it was 0.0501 µM; in the assay on PC-3 it was 0.02 µM. Further, the GI50 in the assay on RXF 393 came to 0.0316 µM; in the assay on U-251, 0.02 µM; in [2], 0.029 µM; in the assay on UACC-257, 0.0631 µM. The same compound had a TGI in assay [1] of 0.61 µM. In assay [3], this compound showed an LC50 (50% lethal concentration) of 12.7 µM.
